Data reported in PubChem BioAssay AID1963432 (Molecular Pharmacology Branch, DTP, NCI, 2024).
Values joined by “and” are separate entries in the source; they are usually repeats but may differ in a detail not shown here. Equal values may be shown once.

Tested on: SYO-1 complex spheroid growth, percent test/control
Experiment: Anticancer human tumor SYO-1 cell line growth inhibition [Asc];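 further: compound exposure lasted 7 days after spheroids grew 3 days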;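 on viability, T/C: 100% = DMSO vehicle control viability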
Conditions: for viability, T/C: stronger effect = lower value
Summary of the method: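 Spheroid model: tumor line + HUVEC + hMSC. Single agents and combinations; top conc. at/near clinical Cmax (10 microM if undetermined), half-log dilutions. DMSO stocks at 800-fold test concentration.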

[1] = curve of first compound, second compound 0.0316 µM
[2] = curve of first compound, second compound 0.1 µM
[3] = curve of first compound, second compound 0.316 µM
[4] = curve of first compound, second compound 1 µM

NC1CCC(NC2CC2c2ccccc2)CC1 (centres undefined) + CNC(C)C(=O)NC1CN(S(=O)(=O)c2cccc(S(=O)(=O)N3CCC4CCC(C(=O)NC(c5ccccc5)c5ccccc5)N4C(=O)C(NC(=O)C(C)NC)C3)c2)CCC2CCC(C(=O)NC(c3ccccc3)c3ccccc3)N2C1=O
IC50 (curve of first compound, second compound 0.01 µM): > 100 nM | IC50 [1]: > 100 nM | IC50 [2]: > 100 nM | IC50 [3]: > 100 nM | IC50 [4]: > 100 nM | viability, T/C (second compound 0.01 µM, first compound 0.000316 µM): 109% | viability, T/C (second compound 0.01 µM, first compound 0.001 µM): 104% | viability, T/C (second compound 0.01 µM, first compound 0.00316 µM): 97.4% | viability, T/C (second compound 0.01 µM, first compound 0.01 µM): 89.4% | viability, T/C (second compound 0.01 µM, first compound 0.0316 µM): 88.1% | viability, T/C (second compound 0.01 µM, first compound 0.1 µM): 86.2% | viability, T/C (second compound 0.0316 µM, first compound 0.000316 µM): 106% | viability, T/C (second compound 0.0316 µM, first compound 0.001 µM): 94% | viability, T/C (second compound 0.0316 µM, first compound 0.00316 µM): 89.7% | viability, T/C (second compound 0.0316 µM, first compound 0.01 µM): 85.6% | viability, T/C (second compound 0.0316 µM, first compound 0.0316 µM): 87.5% | viability, T/C (second compound 0.0316 µM, first compound 0.1 µM): 87.5% | viability, T/C (second compound 0.1 µM, first compound 0.000316 µM): 102% | viability, T/C (second compound 0.1 µM, first compound 0.001 µM): 92.5% | viability, T/C (second compound 0.1 µM, first compound 0.00316 µM): 86.7% | viability, T/C (second compound 0.1 µM, first compound 0.01 µM): 91.3% | viability, T/C (second compound 0.1 µM, first compound 0.0316 µM): 94.8% | viability, T/C (second compound 0.1 µM, first compound 0.1 µM): 91% | viability, T/C (second compound 0.316 µM, first compound 0.000316 µM): 99.8% | viability, T/C (second compound 0.316 µM, first compound 0.001 µM): 97.5% | viability, T/C (second compound 0.316 µM, first compound 0.00316 µM): 90.5% | viability, T/C (second compound 0.316 µM, first compound 0.01 µM): 90.3% | viability, T/C (second compound 0.316 µM, first compound 0.0316 µM): 86.6% | viability, T/C (second compound 0.316 µM, first compound 0.1 µM): 86.2% | viability, T/C (second compound 1 µM, first compound 0.000316 µM): 103% | viability, T/C (second compound 1 µM, first compound 0.001 µM): 99.1% | viability, T/C (second compound 1 µM, first compound 0.00316 µM): 91.2% | viability, T/C (second compound 1 µM, first compound 0.01 µM): 89.6% | viability, T/C (second compound 1 µM, first compound 0.0316 µM): 88.5% | viability, T/C (second compound 1 µM, first compound 0.1 µM): 86.4%

CCN1C(C(=O)NC23CCC(C(=O)O)(CC2)CC3)C(c2cccc(Cl)c2F)C2(C(=O)Nc3cc(Cl)ccc32)C12CCCCC2 (centres undefined) + Cc1c(S(C)(=O)=O)c(-c2cc(F)cc(N3CCN(c4ccc(NS(=O)(=O)c5ccc(NC(CCN6CCC(C(=O)OCCCP(=O)(O)O)CC6)CSc6ccccc6)c(S(=O)(=O)C(F)(F)F)c5)cc4)CC3)c2)c(-c2ccc(Cl)cc2)n1C(C)C
IC50 [1]: 131 nM | IC50 [2]: 127 nM | IC50 [3]: 90.6 nM | IC50 [4]: 64.8 nM | IC50 (curve of first compound, second compound 3.16 µM): 44.3 nM | IC50 (curve of first compound, second compound 10 µM): 35.7 nM | viability, T/C (second compound 0.0316 µM, first compound 0.00949 µM): 97.6% | viability, T/C (second compound 0.0316 µM, first compound 0.03 µM): 88.5% | viability, T/C (second compound 0.0316 µM, first compound 0.0949 µM): 65% | viability, T/C (second compound 0.0316 µM, first compound 0.3 µM): 13.6% | viability, T/C (second compound 0.0316 µM, first compound 0.949 µM): 2.07% | viability, T/C (second compound 0.0316 µM, first compound 3 µM): 0.87% | viability, T/C (second compound 0.1 µM, first compound 0.00949 µM): 91.7% | viability, T/C (second compound 0.1 µM, first compound 0.03 µM): 80.9% | viability, T/C (second compound 0.1 µM, first compound 0.0949 µM): 64.2% | viability, T/C (second compound 0.1 µM, first compound 0.3 µM): 10.4% | viability, T/C (second compound 0.1 µM, first compound 0.949 µM): 1.25% | viability, T/C (second compound 0.1 µM, first compound 3 µM): 0.54% | viability, T/C (second compound 0.316 µM, first compound 0.00949 µM): 86.6% | viability, T/C (second compound 0.316 µM, first compound 0.03 µM): 78.7% | viability, T/C (second compound 0.316 µM, first compound 0.0949 µM): 49.5% | viability, T/C (second compound 0.316 µM, first compound 0.3 µM): 4.49% | viability, T/C (second compound 0.316 µM, first compound 0.949 µM): 0.85% | viability, T/C (second compound 0.316 µM, first compound 3 µM): 0.62% | viability, T/C (second compound 1 µM, first compound 0.00949 µM): 87.4% | viability, T/C (second compound 1 µM, first compound 0.03 µM): 77.6% | viability, T/C (second compound 1 µM, first compound 0.0949 µM): 36.4% | viability, T/C (second compound 1 µM, first compound 0.3 µM): 4.69% | viability, T/C (second compound 1 µM, first compound 0.949 µM): 0.8% | viability, T/C (second compound 1 µM, first compound 3 µM): 0.39% | viability, T/C (second compound 3.16 µM, first compound 0.00949 µM): 77.5% | viability, T/C (second compound 3.16 µM, first compound 0.03 µM): 63.4% | viability, T/C (second compound 3.16 µM, first compound 0.0949 µM): 23.8% | viability, T/C (second compound 3.16 µM, first compound 0.3 µM): 2.4% | viability, T/C (second compound 3.16 µM, first compound 0.949 µM): 0.61% | viability, T/C (second compound 3.16 µM, first compound 3 µM): 0.43% | viability, T/C (second compound 10 µM, first compound 0.00949 µM): 75.9% | viability, T/C (second compound 10 µM, first compound 0.03 µM): 56.7% | viability, T/C (second compound 10 µM, first compound 0.0949 µM): 12.4% | viability, T/C (second compound 10 µM, first compound 0.3 µM): 2.09% | viability, T/C (second compound 10 µM, first compound 0.949 µM): 0.69% | viability, T/C (second compound 10 µM, first compound 3 µM): 0.46%

CCN1CCN(Cc2ccc(Nc3ncc(F)c(-c4cc(F)c5nc(C)n(C(C)C)c5c4)n3)nc2)CC1
viability, T/C (compound 0.00316 µM): 103% (2×) and 101% | viability, T/C (compound 0.01 µM): 99.9% and 103% and 110% | viability, T/C (compound 0.0316 µM): 107% and 106% and 109% | viability, T/C (compound 0.1 µM): 114% and 118% and 115% | viability, T/C (compound 0.316 µM): 115% and 128% and 112% | viability, T/C (compound 1 µM): 106% and 111% and 112% | IC50 (curve of compound): > 1000 nM
